The values below come from patent US8927500B2, “Peptidomimetic macrocycles” (Aileron Therapeutics, Inc., priority 2012, dated 2015).

For one assay, the target named is T1, MDMX (Homo sapiens, UniProt O15151).
T1 sequence (O15151 1-125): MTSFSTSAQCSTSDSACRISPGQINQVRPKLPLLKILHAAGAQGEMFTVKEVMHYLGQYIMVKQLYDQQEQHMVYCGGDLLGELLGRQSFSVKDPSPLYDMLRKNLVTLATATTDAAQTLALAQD
The assay is described as follows: Competitive fluorescence polarization assay for MDMX. The assay is classed as binding. Particulars: competitive FP assay; for IC50: read-out: IC50 (MDMX); for Ki: read-out: Ki (MDMX).

For the next assay, the target named is MDM2 (Homo sapiens, UniProt Q00987). In words: Competitive fluorescence polarization assay for MDM2. The assay is classed as binding. Particulars: competitive FP assay, MDM2; for IC50: read-out: IC50 (MDM2); for Ki: read-out: Ki (MDM2). A general note: Polarisation of emitted light reports the rotation of a fluorescent probe.
In a further assay the test system is SJSA-1 cells. In words: Cell lysis by peptidomimetic macrocycles (LDH release). The class given is cell-based. Particulars: 1 h at 37C. Background: LDH leaks from cells whose membrane has failed.
The test system of another assay is Caspase 3. The assay is described as follows: Caspase 3 detection assay in SJSA1 cells. The assay is classed as cell-based. Particulars: 48 h, Caspase 3 activation over DMSO-treated cells.

Structures are written as SMILES. Where a SMILES comes first, the peptide text is derived from it. Bridges are numbered along the chain shown (N, C = ends). [ ]: non-standard residue; d: D form. R8 = C=CCCCCCC[C@@](C)(N)C(=O)O; Cba = N[C@@H](CC1CCC1)C(=O)O; S5 = C=CCCC[C@](C)(N)C(=O)O

What is called IC50 is the concentration needed to halve the response being measured. For orientation: Ki means the equilibrium dissociation constant of an inhibitor or competing ligand from its target.

Sequence of MDM2 (Q00987 1-125): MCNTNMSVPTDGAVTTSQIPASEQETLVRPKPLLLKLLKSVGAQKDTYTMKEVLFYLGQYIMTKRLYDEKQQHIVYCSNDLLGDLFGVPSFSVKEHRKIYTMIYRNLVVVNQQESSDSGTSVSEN
Method for MDM2: Dilute 1 mM (in 100% DMSO) of FAM labeled linear peptide with DMSO to 100 μM (dilution 1:10). Then, dilute from 100 μM to 10 μM with water (dilution 1:10) and then dilute with FP buffer from 10 μM to 40 nM (dilution 1:250). This is the working solution which will be a 10 nM concentration in well (dilution 1:4). […] Then, dilute from 5 mM to 500 μM with H2O (dilution 1:10) and then dilute with FP buffer from 500 μM to 20 μM (dilution 1:25).
Dilute 1 mM (in 100% DMSO) of FAM labeled linear peptide with DMSO to 100 μM (dilution 1:10). Then, dilute from 100 μM to 10 μM with water (dilution 1:10) and then dilute with FP buffer from 10 μM to 40 nM (dilution 1:250). This is the working solution which will be a 10 nM concentration in well (dilution 1:4). […] Dilute 10 mM (in 100% DMSO) with DMSO to 5 mM (dilution 1:2). Then, dilute from 5 mM to 500 μM with H2O (dilution 1:10) and then dilute with FP buffer from 500 μM to 20 μM (dilution 1:25). […] Transfer 10 μl of serial diluted unlabeled peptides to each well which is filled with 20 μl of 300 nM of protein. • 7. Add 10 μl of 10 nM (4×) of FAM labeled peptide into each well and incubate for 3 hr to read.

Take `CCCC[C@H](NC(=O)[C@H](C)NC(=O)[C@H](C)NC(=O)[C@]1(C)CCCC=CCCCCCC[C@@](C)(NC(=O)[C@H](Cc2ccccc2)NC(=O)[C@@H](NC(=O)[C@H](CC(C)C)NC(C)=O)[C@@H](C)O)C(=O)N[C@@H](C)C(=O)N[C@@H](Cc2ccc(O)cc2)C(=O)N[C@@H](Cc2c[nH]c3ccccc23)C(=O)N[C@@H](C)C(=O)N[C@@H](CCC(N)=O)C(=O)N[C@@H](CC(C)C)C(=O)N1)C(=O)N[C@H](C)C(N)=O` (single isomer, unassigned) [compound 75]: on MDMX, the IC50 was in the range of 100 to 1000 nM and the Ki fell in the range of 10 to 100 nM. For the same compound, on MDM2, the IC50 fell in the range of 10 to 100 nM and the Ki is < 10 nM. In the assay on SJSA-1 cells, the “6.25 uM % Lysed cells (1 h LDH)” value is −1%, the “25 uM % Lysed cells (1 h LDH)” value stood at 1% and the “50 uM % Lysed cells (1 h LDH)” value was found to be 1%.

As for `CC[C@H](C)[C@H](NC(=O)[C@H](C)NC(=O)[C@H](C)NC(=O)[C@]1(C)CCCC=CCCCCCC[C@@](C)(NC(=O)[C@H](Cc2ccccc2)NC(=O)[C@@H](NC(=O)[C@H](CC(C)C)NC(C)=O)[C@@H](C)O)C(=O)N[C@@H](C)C(=O)N[C@@H](Cc2ccc(O)cc2)C(=O)N[C@@H](Cc2c[nH]c3ccccc23)C(=O)N[C@@H](C)C(=O)N[C@@H](CCC(N)=O)C(=O)N[C@@H](CC(C)C)C(=O)N1)C(=O)N[C@H](CC(C)C)C(N)=O` (single isomer, unassigned) [compound 82], in the assay on SJSA-1 cells, the “6.25 uM % Lysed cells (1 h LDH)” value is 0%, the “25 uM % Lysed cells (1 h LDH)” value came to 0% and the “50 uM % Lysed cells (1 h LDH)” value worked out at 1%.

As to `CC(=O)N[C@@H](CC(C)C)C(=O)N[C@H](C(=O)N[C@@H](Cc1ccccc1)C(=O)N[C@]1(C)CCCCCCC=CCCC[C@@](C)(C(=O)N[C@@H](C)C(=O)N[C@H](C(=O)NCC(N)=O)C(C)C)NC(=O)[C@H](CC(C)C)NC(=O)[C@H](CCC(N)=O)NC(=O)[C@H](C)NC(=O)[C@H](Cc2c[nH]c3ccccc23)NC(=O)[C@H](Cc2ccc(O)cc2)NC(=O)[C@H](C)NC1=O)[C@@H](C)O` (single isomer, unassigned) [compound 108], in the assay on SJSA-1 cells, the “6.25 uM % Lysed cells (1 h LDH)” value was 0%, the “25 uM % Lysed cells (1 h LDH)” value came out at 0% and the “50 uM % Lysed cells (1 h LDH)” value is given as 1%.

Regarding `CC(=O)N[C@@H](CC(C)C)C(=O)N[C@H](C(=O)N[C@@H](Cc1ccccc1)C(=O)N[C@]1(C)CCCCCCC=CCCC[C@@](C)(C(=O)N[C@@H](CO)C(=O)N[C@@H](C)C(=O)N[C@@H](C)C(N)=O)NC(=O)[C@H](C2CCCC2)NC(=O)[C@H](CCC(N)=O)NC(=O)[C@H](C)NC(=O)[C@H](Cc2c[nH]c3ccccc23)NC(=O)[C@H](Cc2ccc(O)cc2)NC(=O)[C@H](CCC(=O)O)NC1=O)[C@@H](C)O` (single isomer, unassigned) [compound 150], on MDMX, the IC50 lay within 100 to 1000 nM and the Ki is 10 to 100 nM. Besides, in the assay on SJSA-1 cells, the “6.25 uM % Lysed cells (1 h LDH)” value was −1%, the “25 uM % Lysed cells (1 h LDH)” value stood at 0% and the “50 uM % Lysed cells (1 h LDH)” value was 2%.

Regarding `CC[C@H](C)[C@H](NC(=O)[C@H](C)NC(=O)[C@H](C)NC(=O)[C@]1(C)CCCC=CCCCCCC[C@@](C)(NC(=O)[C@H](Cc2ccccc2)NC(=O)[C@@H](NC(=O)[C@H](CCC(=O)O)NC(C)=O)[C@@H](C)O)C(=O)N[C@@H](CCC(=O)O)C(=O)N[C@@H](Cc2c[nH]cn2)C(=O)N[C@@H](Cc2c[nH]c3ccccc23)C(=O)N[C@@H](C)C(=O)N[C@@H](CCC(N)=O)C(=O)N[C@@H](CC(C)C)C(=O)N1)C(=O)N[C@H](C)C(N)=O` (single isomer, unassigned) [compound 174], in the assay on SJSA-1 cells, the “6.25 uM % Lysed cells (1 h LDH)” value stood at 5%, the “25 uM % Lysed cells (1 h LDH)” value is listed as 2% and the “50 uM % Lysed cells (1 h LDH)” value is 5%.

Turning to `CC[C@H](C)[C@H](NC(=O)[C@H](C)NC(=O)[C@H](C)NC(=O)[C@]1(C)CCCC=CCCCCCC[C@@](C)(NC(=O)[C@H](Cc2ccccc2)NC(=O)[C@@H](NC(=O)[C@H](CC(C)C)NC(C)=O)[C@@H](C)O)C(=O)N[C@@H](CCC(=O)O)C(=O)N[C@@H](Cc2ccc(C(=O)O)cc2)C(=O)N[C@@H](Cc2c[nH]c3cc(Cl)ccc23)C(=O)N[C@@H](C)C(=O)N[C@@H](CCC(N)=O)C(=O)N[C@@H](CC2CCC2)C(=O)N1)C(=O)N[C@H](C)C(N)=O` (single isomer, unassigned) [compound 335], in the assay on SJSA-1 cells, the “6.25 uM % Lysed cells (1 h LDH)” value was 0%, the “25 uM % Lysed cells (1 h LDH)” value was determined as 0% and the “50 uM % Lysed cells (1 h LDH)” value turned out to be 1%.

In the case of `CC(=O)N[C@@H](CCC(=O)O)C(=O)N[C@H](C(=O)N[C@@H](Cc1ccccc1)C(=O)N[C@]1(C)CCCCCCC=CCCC[C@@](C)(C(=O)N[C@@H](C)C(=O)N[C@@H](C)C(=O)N[C@@H](C)C(=O)N[C@@H](C)C(=O)N[C@@H](C)C(=O)N[C@H](C)C(N)=O)NC(=O)[C@H](CC(C)C)NC(=O)[C@H](CCC(N)=O)NC(=O)[C@H](C)NC(=O)[C@H](Cc2c[nH]c3ccccc23)NC(=O)[C@H](Cc2ccc(O)cc2)NC(=O)[C@H](CCC(=O)O)NC1=O)[C@@H](C)O` (single isomer, unassigned) [compound 340], in the assay with SJSA-1 cells, the “6.25 uM % Lysed cells (1 h LDH)” value was determined as 0%, the “25 uM % Lysed cells (1 h LDH)” value came to 0% and the “50 uM % Lysed cells (1 h LDH)” value is given as 0%.

Take `CC(=O)N[C@@H](CC(C)C)C(=O)N[C@H](C(=O)N[C@@H](Cc1ccccc1)C(=O)N[C@]1(C)CCCCCCC=CCCC[C@@](C)(C(=O)N[C@@H](C)C(=O)N[C@@H](Cc2c[nH]cn2)C(=O)N[C@@H](Cc2ccccc2)C(=O)N[C@@H](C)C(N)=O)NC(=O)[C@H](CC(C)C)NC(=O)[C@H](CCC(N)=O)NC(=O)[C@H](C(C)C)NC(=O)[C@H](Cc2c[nH]c3ccccc23)NC(=O)[C@H](Cc2c[nH]cn2)NC(=O)[C@H](C)NC1=O)[C@@H](C)O` [compound 190] (Ac-LTF[R8]AHWVQL[S5]AHFA-NH2; staple 4-11): in the assay on SJSA-1 cells, the “6.25 uM % Lysed cells (1 h LDH)” value was −1%, the “25 uM % Lysed cells (1 h LDH)” value worked out at 0% and the “50 uM % Lysed cells (1 h LDH)” value was found to be 1%.

`CC(=O)N[C@@H](CC(C)C)C(=O)N[C@H](C(=O)N[C@@H](Cc1ccccc1)C(=O)N[C@]1(C)CCCCCCC=CCCC[C@@](C)(C(=O)N[C@@H](CO)C(=O)N[C@@H](C)C(=O)N[C@@H](Cc2ccccc2)C(=O)N[C@@H](C)C(N)=O)NC(=O)[C@H](CC2CCC2)NC(=O)[C@H](CCC(N)=O)NC(=O)[C@H](C)NC(=O)[C@H](Cc2c[nH]c3ccccc23)NC(=O)[C@H](Cc2ccc(O)cc2)NC(=O)[C@H](CCC(=O)O)NC1=O)[C@@H](C)O` [compound 242] (Ac-LTF[R8]EYWAQ[Cba][S5]SAFA-NH2; staple 4-11): on MDMX, the IC50 was in the range of 100 to 1000 nM and the Ki lay in the range of 10 to 100 nM. Also, the “caspase 0.3 uM” value in the assay with Caspase 3 (0.3 uM peptide) was 1. Also, the “caspase 3 uM” value with Caspase 3 (3 uM peptide) was 4. Besides, in the assay with Caspase 3 (10 uM peptide), the “caspase 10 uM” value is 5. Moreover, the “caspase 30 uM” value with Caspase 3 (30 uM peptide) amounted to 18. In addition, on MDM2, the IC50 was 10 to 100 nM and the Ki was < 10 nM.

As for `CC(C)CC[C@@H]1NC(=O)[C@H](CCC(N)=O)NC(=O)[C@H](C)NC(=O)[C@H](Cc2c[nH]c3ccccc23)NC(=O)[C@H](Cc2ccc(O)cc2)NC(=O)[C@H](CCC(=O)O)NC(=O)[C@](C)(NC(=O)[C@H](Cc2ccccc2)NC(=O)[C@@H](NC(=O)[C@H](CC(C)C)NC(=O)CN(C)C)[C@@H](C)O)CCCCCCC=CCCC[C@@](C)(C(=O)N[C@@H](CO)C(=O)N[C@@H](C)C(=O)N[C@@H](C)C(N)=O)NC1=O` [compound 279], at MDMX, the IC50 lay within 10 to 100 nM and the Ki is 10 to 100 nM. For the same compound, in the assay on SJSA-1 cells, the “6.25 uM % Lysed cells (1 h LDH)” value was found to be 6%, the “25 uM % Lysed cells (1 h LDH)” value turned out to be 5% and the “50 uM % Lysed cells (1 h LDH)” value is 6%.

For `CCCCCC(=O)N[C@@H](CC(C)C)C(=O)N[C@H](C(=O)N[C@@H](Cc1ccccc1)C(=O)N[C@]1(C)CCCCCCC=CCCC[C@@](C)(C(=O)N[C@@H](CO)C(=O)N[C@@H](C)C(=O)N[C@@H](C)C(N)=O)NC(=O)[C@H](CCC(C)C)NC(=O)[C@H](CCC(N)=O)NC(=O)[C@H](C)NC(=O)[C@H](Cc2c[nH]c3ccccc23)NC(=O)[C@H](Cc2ccc(O)cc2)NC(=O)[C@H](CCC(=O)O)NC1=O)[C@@H](C)O` [compound 280], at MDMX, the IC50 lay in the range of 100 to 1000 nM and the Ki lay in the range of 10 to 100 nM. Moreover, in the assay on SJSA-1 cells, the “6.25 uM % Lysed cells (1 h LDH)” value was 5%, the “25 uM % Lysed cells (1 h LDH)” value came out at 6% and the “50 uM % Lysed cells (1 h LDH)” value stood at 18%.

As for `CC(C)CC[C@@H]1NC(=O)[C@H](CCC(N)=O)NC(=O)[C@H](C)NC(=O)[C@H](Cc2c[nH]c3ccccc23)NC(=O)[C@H](Cc2ccc(O)cc2)NC(=O)[C@H](CCC(=O)O)NC(=O)[C@](C)(NC(=O)[C@H](Cc2ccccc2)NC(=O)[C@@H](NC(=O)[C@H](CC(C)C)NC(=O)C(C)(C)C)[C@@H](C)O)CCCCCCC=CCCC[C@@](C)(C(=O)N[C@@H](CO)C(=O)N[C@@H](C)C(=O)N[C@@H](C)C(N)=O)NC1=O` [compound 284], at MDMX, the IC50 fell in the range of 100 to 1000 nM and the Ki is 10 to 100 nM. Further, in the assay on SJSA-1 cells, the “6.25 uM % Lysed cells (1 h LDH)” value was 5%, the “25 uM % Lysed cells (1 h LDH)” value came out at 5% and the “50 uM % Lysed cells (1 h LDH)” value is 6%.

With `CCCC[C@H](NC(=O)[C@H](C)NC(=O)[C@H](C)NC(=O)[C@]1(C)CCCC=CCCCCCC[C@@](C)(NC(=O)[C@H](Cc2ccccc2)NC(=O)[C@@H](NC(=O)[C@H](CC(C)C)NC(C)=O)[C@@H](C)O)C(=O)N[C@@H](C)C(=O)N[C@@H](Cc2ccc(O)cc2)C(=O)N[C@@H](Cc2c[nH]c3ccccc23)C(=O)N[C@@H](Cc2cc(=O)oc3cc(OC)c(OC)cc23)C(=O)N[C@@H](CCC(N)=O)C(=O)N[C@@H](CC(C)C)C(=O)N1)C(=O)N[C@@H](C)C(N)=O` [compound 415], in the assay on SJSA-1 cells, the “6.25 uM % Lysed cells (1 h LDH)” value is reported as 4%, the “25 uM % Lysed cells (1 h LDH)” value is recorded as 2% and the “50 uM % Lysed cells (1 h LDH)” value was determined as 2%.
